Source: PMC7509555, “An In Vitro Study for Evaluating Permeability and Metabolism of Kurarinone” (Evidence-based Complementary and Alternative Medicine : eCAM, 2020)
Read-outs that look alike come from different tables or passages of the source.

Assays:
[1] = system: monkey liver microsomes (MLMs); experiment: Enzyme kinetics of P1 formation from kurarinone in MLMs; assay type: in vitro ADME
Experimental: (§1) Samples were prepared in a total volume of 200 μL, containing 0.3 mg/mL protein in human liver microsomes or 15 nM protein in recombinant human supersomes, probe substrates or 50 μM kurarinone, 10 mM MgCl2, 10 mM glucose-6-phosphate, and 1 unit/mL of glucose-6-phosphate dehydrogenase. The reactions were activated by adding NADPH following preincubation at 37°C for 5 min. The reactions were maintained at 37°C for 1 h and terminated by adding 200 μL ice-cold acetonitrile. The supernatant (10 μL) collected from the samples that were centrifuged (20,000 g, 20 min, 4°C) was injected into the HPLC system for analysis. Control incubations devoid of NADPH or kurarinone were performed parallelly to ensure that the produced metabolites were NADPH- or kurarinone-dependent.
(§2) Various concentrations of kurarinone (1–200 μM) were incubated with RLMs, MLMs, PLMs, RAMs, CYP1A2, and CYP2D6 to estimate kinetic parameters. The rest of the other conditions remained the same as described in Section 2.3. […] The apparent Km and Vmax values were calculated from nonlinear regression analysis of experimental data according to the Michaelis–Menten equation, and the results were represented graphically by Eadie–Hofstee plots. All incubations were carried out as triplicate independent experiments, and kinetic constants were recorded as mean ± SD.

[2] = Prediction of in vivo hepatic clearance in human from HLM kinetics; assay type: in vitro ADME
Description: (§3) The following equations were utilized to predict the in vivo hepatic clearance of kurarinone in humans and rats.(1) CLint in vitro=Vmax/Km, (2) […], (3) CLH=QH·fu·CLint in/QH+fu·CLint in vivo, where the SF (scaling factor) represents the milligrams of microsomal protein per gram of the liver multiplied by the grams of liver weight; CLint is the intrinsic metabolic clearance; CLH is hepatic clearance; fu is the free fraction in the blood (no data were available for kurarinone; thus, fu was arbitrarily proposed to be 1); and QH is the hepatic blood flow. The CLH of kurarinone was calculated using equations (1)–(3).

[3] = parameters: method as in PMID 25703950; settings: rats, cited from earlier work
primary rat hepatocytes = settings: cited from earlier work
[4] = Prediction of in vivo hepatic clearance in rat from RLM kinetics; assay type: in vitro ADME
Description: as §3

[5] = system: rat liver microsomes (RLMs); experiment: Enzyme kinetics of P1 formation from kurarinone in RLMs; assay type: in vitro ADME
Experimental: as §1, §2

UGT1A1 = molecular target: T1, UGT1A1 (Homo sapiens, UniProt P22309); experiment: Inhibition of recombinant UGT1A1-catalyzed 4-MU glucuronidation; assay type: in vitro ADME
T1 construct: purchased BD Gentest Corp. (Woburn, MA, USA)
T1 sequence (P22309 26-533): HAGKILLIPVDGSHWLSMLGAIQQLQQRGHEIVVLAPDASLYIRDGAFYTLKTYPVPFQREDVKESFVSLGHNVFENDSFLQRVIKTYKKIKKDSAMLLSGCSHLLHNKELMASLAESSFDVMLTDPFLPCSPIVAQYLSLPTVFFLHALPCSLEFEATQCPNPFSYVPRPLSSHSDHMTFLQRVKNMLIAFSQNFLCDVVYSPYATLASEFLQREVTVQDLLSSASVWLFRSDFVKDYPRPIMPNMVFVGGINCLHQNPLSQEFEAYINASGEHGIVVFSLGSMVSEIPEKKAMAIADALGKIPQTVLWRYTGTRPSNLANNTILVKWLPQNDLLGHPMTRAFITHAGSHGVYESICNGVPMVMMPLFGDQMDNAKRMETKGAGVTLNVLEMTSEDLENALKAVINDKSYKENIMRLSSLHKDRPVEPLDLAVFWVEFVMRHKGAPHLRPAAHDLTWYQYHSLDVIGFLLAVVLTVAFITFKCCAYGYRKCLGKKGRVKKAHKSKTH
Experimental: 4-MU, a nonspecific probe substrate for UGT isoforms, was used to explore the inhibition of UGT isoforms by kurarinone. The mixture (200 μL total volume) contained recombinant UGTs (final concentrations: 0.125, 0.05, 0.025, 0.05, 0.025, 0.05, 0.05, 0.25, 0.05, and 0.2 mg/mL for UGT1A1, UGT1A3, UGT1A6, UGT1A7, UGT1A8, UGT1A9, UGT1A10, UGT2B4, UGT2B7, and UGT2B15, respectively), 5 mM UDPGA, 5 mM MgCl2, 50 mM Tris-HCl buffer (pH 7.4), and 4-MU in the absence or presence of various concentrations of kurarinone. The concentrations of 4-MU were as follows: 110 μM for UGT1A1 and UGT1A6, 1200 μM for UGT1A3 and UGT2B4, 15 μM for UGT1A7, 750 μM for UGT1A8, 30 μM for UGT1A9, 80 μM for UGT1A10, 350 μM for UGT2B7, 250 μM for UGT2B15, and 2000 μM for UGT2B17. Kurarinone was dissolved in methanol, and the final concentration of methanol was 0.5% (v/v). Reactions were initiated by adding UDPGA, and incubations were carried out at 37°C in a shaking waterbath for 60 min. The reactions were terminated by addition of 200 μL of ice-cold acetonitrile containing 7-hydroxycoumarin (100 μM) as the internal standard. The incubation mixture was then centrifuged at 20,000 ×g for 20 min to obtain the supernatant, and an aliquot of supernatant (20 μL) was transferred to an autoinjector vial for HPLC analysis.

[6] = system: human liver microsomes (HLMs); experiment: Enzyme kinetics of P1 formation from kurarinone in HLMs; assay type: in vitro ADME
PAMPA permeability study = assay type: in vitro ADME; settings: for Papp at 5 h: PAMPA, room temperature, read-out: PAMPA effective permeability Pe
Experimental: The PAMPA method was used to measure the membrane permeability values, as described by Singh et al. in an earlier study. Drug samples were dissolved in DMSO and then diluted to 10 mM concentrations as a stock solution. 300 μL diluted drugs solution was filled in the PAMPA plate as the “donor” wells, and the 96-well filter plate with a synthetic phospholipid membrane was then placed on the donor wells. The “acceptor” wells were filled with 200 μl of buffer solution, and the PAMPA instruments were incubated at room temperature for 5 h. Kurarinone permeability was assessed in quadruplicate at pH 4.0 and 7.4. […] At the end of the incubation, kurarinone and the marker compounds in the donor and acceptor wells were determined by HPLC, and permeability was calculated.

With `C=C(C)[C@H](CC=C(C)C)Cc1c(O)cc(OC)c2c1O[C@H](c1ccc(O)cc1O)CC2=O` [Kurarinone] the “Vmax of P1 formation” value [1] was 4.83 ± 0.14 nmol·min^−1·mg^−1 protein, the Km ([1]; kurarinone 1–200 μM) was 21 ± 3.42 µM and the “percentage of CLH versus hepatic blood flow (QH)” value ([2]; human) was 81.27%. For the same compound, the “predicted hepatic clearance CLH” value ([2]; humans, from HLM kinetic parameters of P1, fu assumed 1) was 16.82 mL/min/kg, the “clearance category based on CLH projected from in vitro data” value ([2]; in humans, high-clearance = >70% liver blood flow) was “high-clearance” and the t1/2 ([3]; intravenous 10 mg/kg) was 1.81 h. The Cmax [3] was 1668.01 ng/mL, the cytotoxicity (primary rat hepatocytes) was “remarkable cytotoxicity” and the “percentage of CLH versus hepatic blood flow (QH)” value ([4]; rat) was 83.35%. For the same compound, the “predicted hepatic clearance CLH” value ([4]; rats, from RLM kinetic parameters of P1, fu assumed 1) was 46.01 mL/min/kg body weight, the “Vmax of P1 formation” value [5] was 3.34 ± 0.19 nmol·min^−1·mg^−1 protein and the Km ([5]; kurarinone 1–200 μM) was 18.1 ± 3.91 µM. For the same compound, the “inhibition type against UGT1A1” value (UGT1A1; Dixon and Lineweaver–Burk plots) was “noncompetitive”, the inhibition at 60 min, 100 μM (UGT1A1; human, recombinant UGT1A1, pH 7.4, probe 4-MU (110 μM), 100 μM kurarinone, 4-MU glucuronidation, recombinant UGT) was greater than 90% and the IC50 (UGT1A1; recombinant UGT1A1, 4-MU glucuronidation, read-out: IC50 against UGT1A1) was 13.6 µM. The Ki (UGT1A1; second plot of slopes from Lineweaver–Burk plots) was 13 µM, the “Vmax of P1 formation” value [6] was 1.56 ± 0.24 nmol·min^−1·mg^−1 protein and the Km ([6]; kurarinone 1–200 μM) was 22 ± 4.93 µM. For the same compound, the Papp at 5 h (PAMPA permeability study; pH = 4) was 3.87 ± 1.39 ×10⁻⁶ cm/s, the Papp at 5 h (PAMPA permeability study; pH = 7) was 2.14 ± 0.82 ×10⁻⁶ cm/s and the PAMPA permeability class (PAMPA permeability study; pH 4.0 and 7.4) was “moderate permeability”.
